Experimental data from patent publication US20260062422A1 (Halda Therapeutics OpCo, Inc., priority 2022, published 2026).

Experiments:
[1] = Cellular growth inhibition, T-Rex 293 SC cells with doxycycline (progesterone receptor isoform B induced), Example 45; format: cell-based; settings: progesterone receptor isoform B induced with 10 ng/mL doxycycline, 72 hours, CellTiter-Glo 2.0, Table 11
[2] = tested on: T-Rex 293 cell line SC cells lacking increased expression of progesterone receptor isoform B protein; assay: Cellular growth inhibition, T-Rex 293 SC cells without doxycycline, Example 45; format: cell-based; settings: T-Rex 293 SC cells not exposed to doxycycline, 72 hours treatment, CellTiter-Glo 2.0
[3] = biological target: T1, BRD4-BD1 (Homo sapiens, UniProt O60885); assay: bromoKdELECT assay for binding affinity to BRD4-BD1; settings: Table 6
T1 construct: made in house; host or cells: T7 phage grown in an E. coli host derived from BL21

| SMILES | Kd [3] [nM] | GI50 [1] [nM] | GI50 [2] [nM] |
| --- | --- | --- | --- |
| Cc1sc2c(c1C)C(c1ccc(Cl)cc1)=N[C@@H](CC(=O)NCCOCCOCCOCCOCCOC1CCN(c3ncc(C(=O)N[C@H]4C(C)(C)[C@H](Oc5ccc(C#N)c(Cl)c5)C4(C)C)cn3)CC1)c1nnc(C)n1-2 [Compound I-8] | 500 to 2500 | < 500 | 500 to 1500 |
| Cc1sc2c(c1C)C(c1ccc(Cl)cc1)=N[C@H](CC(=O)NCCOCCOCCOCCOCCOCCOCCOC1CCN(c3ncc(C(=O)N[C@H]4C(C)(C)[C@H](Oc5ccc(C#N)c(Cl)c5)C4(C)C)cn3)CC1)c1nnc(C)n1-2 [Compound I-9] | 500 to 2500 | < 500 | 1500 to 3000 |
| CCNC(=O)C[C@@H]1N=C(c2ccc(OCCOC3CCN(c4ncc(C(=O)N[C@H]5C(C)(C)[C@H](Oc6ccc(C#N)c(Cl)c6)C5(C)C)cn4)CC3)cc2)c2c(sc(C)c2C)-n2c(C)nnc21 [Compound I-60, N-((1r,3r)-3-(3-chloro-4-cyanophenoxy)-2,2,4,4-tetramethylcyclobutyl)-2-(4-(2-(4-((S)-6-(2-(ethylamino)-2-oxoethyl)-2,3,9-trimethyl-6H-thieno[3,2-f][1,2,4]triazolo[4,3-a][1,4]diazepin-4-yl)phenoxy)ethoxy)piperidin-1-yl)pyrimidine-5-carboxamide] | 50 to 500 | < 500 | < 500 |
| CCNC(=O)C[C@@H]1N=C(c2ccc(N3CCN(CC4CCN(c5ncc(C(=O)N[C@H]6C(C)(C)[C@H](Oc7ccc(C#N)c(Cl)c7)C6(C)C)cn5)CC4)CC3)cc2)c2c(sc(C)c2C)-n2c(C)nnc21 [Compound I-105, N-[3-(3-chloro-4-cyano-phenoxy)-2,2,4,4-tetramethyl-cyclobutyl]-2-[4-[[4-[4-[(9S)-9-[2-(ethylamino)-2-oxo-ethyl]-4,5,13-trimethyl-3-thia-1,8,11,12-tetrazatricyclo[8.3.0.02,6]trideca-2(6),4,7,10,12-pentaen-7-yl]phenyl]piperazin-1-yl]methyl]-1-piperidyl]pyrimidine-5-carboxamide] | 50 to 500 | < 500 | < 500 |

More lines, main results first:

| Kd [3] [nM] | SMILES | GI50 [1] [nM] | GI50 [2] [nM] |
| --- | --- | --- | --- |
| > 2500 | Cc1sc2c(c1C)C(c1ccc(CCCOC3CCN(c4ncc(C(=O)N[C@H]5C(C)(C)[C@H](Oc6ccc(C#N)c(Cl)c6)C5(C)C)cn4)CC3)cc1)=N[C@@H](Cc1ncco1)c1nnc(C)n1-2 [Compound I-131, N-[3-(3-chloro-4-cyano-phenoxy)-2,2,4,4-tetramethyl-cyclobutyl]-2-[4-[3-[4-[(9S)-4,5,13-trimethyl-9-(oxazol-2-ylmethyl)-3-thia-1,8,11,12-tetrazatricyclo[8.3.0.02,6]trideca-2(6),4,7,10,12-pentaen-7-yl]phenyl]propoxy]-1-piperidyl]pyrimidine-5-carboxamide] | < 500 | < 500 |
| > 2500 | COCC[C@@H]1N=C(c2ccc(CCCOC3CCN(c4ncc(C(=O)N[C@H]5C(C)(C)[C@H](Oc6ccc(C#N)c(Cl)c6)C5(C)C)cn4)CC3)cc2)c2c(sc(C)c2C)-n2c(C)nnc21 [Compound I-227, N-[3-(3-chloro-4-cyano-phenoxy)-2,2,4,4-tetramethyl-cyclobutyl]-2-[4-[3-[4-[(9S)-9-(2-methoxyethyl)-4,5,13-trimethyl-3-thia-1,8,11,12-tetrazatricyclo[8.3.0.02,6]trideca-2(6),4,7,10,12-pentaen-7-yl]phenyl]propoxy]-1-piperidyl]pyrimidine-5-carboxamide] | < 500 | 500 to 1500 |
| 500 to 2500 | Cc1sc2c(c1C)C(c1ccc(CCCOC3CCN(c4ncc(C(=O)N[C@H]5C(C)(C)[C@H](Oc6ccc(C#N)c(Cl)c6)C5(C)C)cn4)CC3)cc1)=N[C@@H](C)c1nnc(C)n1-2 [Compound I-228, N-[3-(3-chloro-4-cyano-phenoxy)-2,2,4,4-tetramethyl-cyclobutyl]-2-[4-[3-[4-[(9S)-4,5,9,13-tetramethyl-3-thia-1,8,11,12-tetrazatricyclo [8.3.0.02,6]trideca-2(6),4,7,10,12-pentaen-7-yl]phenyl]propoxy]-1-piperidyl]pyrimidine-5-carboxamide] | < 500 | 500 to 1500 |
| > 2500 | Cc1sc2c(c1C)C(c1ccc(OCCOC3CCN(c4ncc(C(=O)N[C@H]5C(C)(C)[C@H](Oc6ccc(C#N)c(Cl)c6)C5(C)C)cn4)CC3)cc1)=N[C@@H](CC(=O)OC(C)(C)C)c1nnc(C)n1-2 [Compound I-235, tert-butyl 2-((S)-4-(4-(2-((1-(5-(((1r,3r)-3-(3-chloro-4-cyanophenoxy)-2,2,4,4-tetramethylcyclobutyl)carbamoyl)pyrimidin-2-yl)piperidin-4-yl)oxy)ethoxy)phenyl)-2,3,9-trimethyl-6H-thieno[3,2-f][1,2,4]triazolo[4,3-a][1,4]diazepin-6-yl)acetate] | < 500 | < 500 |
